Test results from article PMC7046733, “Plantaricin NC8 αβ exerts potent antimicrobial activity against Staphylococcus spp. and enhances the effects of antibiotics” (Scientific Reports, 2020).
Where two headings read alike, the source gives them in different places. Residues, ends and D or L forms follow the SMILES beside them.

What was measured:
human erythrocytes = assay: Haemolysis; type: cell-based; conditions: isolated human erythrocytes, 1 h, 37 °C, n=3
Procedure: The haemolytic activity of the peptides was investigated by collecting blood from healthy volunteers in heparinized vacutainers. Briefly, the blood was centrifuged at 600 × g for 5 min and the erythrocyte pellet was washed three times in PBS. The cells were then suspended in PBS and added to 96-well plates (15% erythrocyte suspension/well), containing the peptides with two-fold serial dilution. The plates were incubated for 1 h at 37 °C followed by centrifugation for 5 min at 900 × g and measurement of the supernatants at 540 nm. Haemolytic activity (%) was calculated by subtracting the negative control from all values and normalization against the positive control (0.5% Triton X-100), that was set to 100%. All experiments, each in duplicate, were repeated three times.

Trypsin = assay: Proteolytic degradation; type: in vitro ADME; conditions: peptide 100 µM, trypsin 0.125 mg/ml (~5 µM), ammonium bicarbonate buffer 50 mM pH 8.5, 16 h, 37 °C, MALDI-ToF MS
Description: Samples were resuspended in MQ-water containing 0.1% TFA, desalted using ZipTip-C18 columns (Millipore) and analyzed using MALDI-ToF with α-cyano-4-hydroxycinnamic acid as matrix.

[1] = test system: S. epidermidis ATCC 12228; assay: microbe, parasite or virus in culture
Procedure: (§1) The broth microdilution method was used to determine minimal inhibitory concentration (MIC) and minimal bactericidal concentration (MBC). Briefly, two-fold serial dilutions of the peptides were used and the final concentrations ranged between 0.097–50 µM. The final concentrations of the antibiotics vancomycin and teicoplanin ranged between 0.097–50 µg/ml, while rifampicin ranged between 0.0019–1 µg/ml and gentamicin 0.0097–5 µg/ml. The inhibitory and bactericidal effects of peptides together with antibiotics were studied by using the same concentration series of antibiotics with constant, sub-MIC concentrations, of the peptides in all the wells (see figure legends). The plates were then incubated at 37 °C for 20 h. […] MBC was determined as the lowest concentration where no growth of bacterial colonies (10 µl) was observed on blood-agar plates. All experiments were repeated at least three times. The combined effect of teicoplanin and PLNC8 αβ against S. epidermidis ATCC 12228 was evaluated by the microdilution checkerboard method. Briefly, two-fold serial dilutions of the antibiotics and PLNC8 αβ were prepared together in microtiter plates, either alone or in combination. The MIC values were determined visually and spectroscopically, and the fractional inhibitory concentration (ΣFIC) was calculated by the equation (MIC of PLNC8 αβ in combination/MIC of PLNC8 αβ alone) + (MIC of antibiotic in combination/MIC of antibiotic alone). Synergy was defined as ΣFIC ≤ 0.5, additive when 0.5 <ΣFIC ≤1, indifferent when 1 <ΣFIC <2 and antagonistic when ΣFIC ≥ 2.

[2] = test system: S. aureus CCUG 35601 (MRSA); assay: Broth microdilution MIC/MBC; type: cell-based
Procedure: as §1, with “legends).” for “legends). The plates were then incubated at 37 °C for 20 h.”

[3] = test system: S. epidermidis 126 (hGISE); assay: Broth microdilution MIC/MBC; type: cell-based
Procedure: as §1, with “legends).” for “legends). The plates were then incubated at 37 °C for 20 h.”

[4] = test system: S. epidermidis 157 (hGISE); assay: Broth microdilution MIC/MBC; type: cell-based
Procedure: as §1, with “legends).” for “legends). The plates were then incubated at 37 °C for 20 h.”

S. epidermidis 154 = assay: Broth microdilution MIC/MBC; type: cell-based
Procedure: as §1

[5] = Staphylococcus epidermidis, ATCC12228, 20 h
[6] = Staphylococcus epidermidis, 24 h
[7] = Staphylococcus epidermidis, 154, 20 h
[8] = antibiotic alone, broth microdilution, 37 °C, 20 h
[9] = MRSA, antibiotic alone, after 24 h
[10] = S. epidermidis 126, antibiotic alone, after 24 h
[11] = S. epidermidis 157, antibiotic alone, after 24 h
[12] = Staphylococcus epidermidis, 154, 20 h, antibiotic alone, 20 h, read-out: MBC

Question: CC[C@H](C)[C@H](NC(=O)CNC(=O)[C@H](CC(C)C)NC(=O)[C@@H](NC(=O)[C@@H](N)Cc1ccc(O)cc1)[C@@H](C)O)C(=O)N[C@@H](CCCCN)C(=O)N[C@H](C(=O)N[C@@H](CC(C)C)C(=O)N[C@@H](Cc1c[nH]c2ccccc12)C(=O)N[C@@H](CO)C(=O)N[C@@H](C)C(=O)N[C@@H](Cc1ccc(O)cc1)C(=O)N[C@@H](CCCCN)C(=O)N[C@@H](Cc1c[nH]cn1)C(=O)N[C@@H](CCCNC(=N)N)C(=O)N[C@@H](CCCCN)C(=O)N[C@H](C(=O)N[C@H](C(=O)N[C@@H](CCC(=O)O)C(=O)N[C@@H](CCCCN)C(=O)N[C@@H](CO)C(=O)N[C@@H](Cc1ccccc1)C(=O)N[C@@H](CC(N)=O)C(=O)N[C@@H](CCCCN)C(=O)NCC(=O)N[C@@H](Cc1ccccc1)C(=O)N[C@@H](Cc1ccc(O)cc1)C(=O)N[C@@H](Cc1c[nH]cn1)C(=O)O)[C@@H](C)CC)[C@@H](C)O)[C@@H](C)CC [β7-34] (H-YTLGIKILWSAYKHRKTIEKSFNKGFYH-OH) was tested. Which “cytotoxic at relevant concentrations (<50 µM), determined by haemolytic activity” value (“cytotoxic at relevant concentrations” for short) (human erythrocytes) did it give?
Answer: nor the truncated α1–22, α1–15, β7–34, β7–20 and β1–20 were cytotoxic

Question: Which degradation by trypsin (Trypsin) does the source give for CC[C@H](C)[C@H](NC(=O)CNC(=O)[C@H](CC(C)C)NC(=O)[C@@H](NC(=O)[C@H](Cc1ccc(O)cc1)NC(=O)[C@@H](NC(=O)[C@H](CO)NC(=O)[C@@H](NC(=O)[C@@H]1CCCN1C(=O)[C@@H](NC(=O)[C@@H](N)CO)C(C)C)[C@@H](C)O)C(C)C)[C@@H](C)O)C(=O)N[C@@H](CCCCN)C(=O)N[C@H](C(=O)N[C@@H](CC(C)C)C(=O)N[C@@H](Cc1c[nH]c2ccccc12)C(=O)N[C@@H](CO)C(=O)N[C@@H](C)C(=O)N[C@@H](Cc1ccc(O)cc1)C(=O)N[C@@H](CCCCN)C(=O)N[C@@H](Cc1c[nH]cn1)C(=O)N[C@@H](CCCNC(=N)N)C(=O)N[C@@H](CCCCN)C(=O)N[C@H](C(=O)N[C@H](C(=O)N[C@@H](CCC(=O)O)C(=O)N[C@@H](CCCCN)C(=O)N[C@@H](CO)C(=O)N[C@@H](Cc1ccccc1)C(=O)N[C@@H](CC(N)=O)C(=O)N[C@@H](CCCCN)C(=O)NCC(=O)N[C@@H](Cc1ccccc1)C(=O)N[C@@H](Cc1ccc(O)cc1)C(=O)N[C@@H](Cc1c[nH]cn1)C(=O)O)[C@@H](C)CC)[C@@H](C)O)[C@@H](C)CC [L-PLNC8 β] (H-SVPTSVYTLGIKILWSAYKHRKTIEKSFNKGFYH-OH) here?
Answer: efficiently degraded by trypsin

Question: For CN[C@H](CC(C)C)C(=O)N[C@H]1C(=O)N[C@@H](CC(N)=O)C(=O)N[C@H]2C(=O)N[C@H]3C(=O)N[C@H](C(=O)N[C@H](C(=O)O)c4cc(O)cc(O)c4-c4cc3ccc4O)[C@H](O)c3ccc(c(Cl)c3)Oc3cc2cc(c3O[C@@H]2O[C@H](CO)[C@@H](O)[C@H](O)[C@H]2O[C@H]2C[C@](C)(N)[C@H](O)[C@H](C)O2)Oc2ccc(cc2Cl)[C@H]1O [Vancomycin, vancomycin], which MBC [1, 5] is on record?
Answer: 3.1 µg/mL

Question: And the MIC [1, 5]?
Answer: 1.5 µg/mL

Question: What about the MBC ([2]; Staphylococcus aureus, 24 h) of the same compound?
Answer: 3.1 µg/mL

Question: And the MBC [3, 6]?
Answer: 3.1 µg/mL

Question: And the MIC [3, 6]?
Answer: 3.1 µg/mL

Question: What about the MBC [4, 6] of the same compound?
Answer: 6.25 µg/mL

Question: What about the MIC [4, 6] of the same compound?
Answer: 6.25 µg/mL

Question: What about the MBC (S. epidermidis 154; [7]) of the same compound?
Answer: 3.1 µg/mL

Question: And the MIC (S. epidermidis 154; [7])?
Answer: 1.5 µg/mL

Question: For teicoplanin, which MBC [1, 8] is on record?
Answer: 1.5 µg/mL

Question: What about the MIC [1, 8] of the same compound?
Answer: 1.5 µg/mL

Question: And the MBC [2, 9]?
Answer: 3.1 µg/mL

Question: And the MIC [2, 9]?
Answer: 0.78 µg/mL

Question: And the MBC [3, 10]?
Answer: 6.25 µg/mL

Question: And the MIC [3, 10]?
Answer: 3.1 µg/mL

Question: And the MBC [4, 11]?
Answer: 25 µg/mL

Question: And the MIC [4, 11]?
Answer: 12.5 µg/mL

Question: And the MBC (S. epidermidis 154; antibiotic alone, 20 h)?
Answer: 1.5 µg/mL

Question: What about the MIC (S. epidermidis 154; antibiotic alone, 20 h) of the same compound?
Answer: 1.5 µg/mL

Question: Which “cytotoxic at relevant concentrations” value (human erythrocytes) does the source give for CC[C@H](C)[C@H](NC(=O)CNC(=O)[C@H](CC(C)C)NC(=O)[C@@H](NC(=O)[C@@H](N)Cc1ccc(O)cc1)[C@@H](C)O)C(=O)N[C@@H](CCCCN)C(=O)N[C@H](C(=O)N[C@@H](CC(C)C)C(=O)N[C@@H](Cc1c[nH]c2ccccc12)C(=O)N[C@@H](CO)C(=O)N[C@@H](C)C(=O)N[C@@H](Cc1ccc(O)cc1)C(=O)N[C@@H](CCCCN)C(=O)N[C@@H](Cc1c[nH]cn1)C(=O)O)[C@@H](C)CC [β7-20] (H-YTLGIKILWSAYKH-OH) here?
Answer: nor the truncated α1–22, α1–15, β7–34, β7–20 and β1–20 were cytotoxic

Question: Which “cytotoxic at relevant concentrations” value (human erythrocytes) does the source give for CC(C)C[C@H](NC(=O)[C@H](CC(N)=O)NC(=O)[C@H](Cc1c[nH]c2ccccc12)NC(=O)[C@H](CCCNC(=N)N)NC(=O)[C@H](C)NC(=O)[C@H](CCCCN)NC(=O)[C@H](CCCCN)NC(=O)CNC(=O)[C@H](CC(C)C)NC(=O)[C@H](Cc1ccc(O)cc1)NC(=O)[C@H](Cc1ccc(O)cc1)NC(=O)CNC(=O)[C@H](Cc1c[nH]c2ccccc12)NC(=O)[C@H](CO)NC(=O)[C@H](CO)NC(=O)[C@H](Cc1c[nH]c2ccccc12)NC(=O)[C@H](CC(C)C)NC(=O)[C@H](CCCCN)NC(=O)[C@@H](NC(=O)[C@@H](NC(=O)[C@H](CC(C)C)NC(=O)[C@@H](N)CC(=O)O)[C@@H](C)O)[C@@H](C)O)C(=O)O [α1-22] (H-DLTTKLWSSWGYYLGKKARWNL-OH) here?
Answer: nor the truncated α1–22, α1–15, β7–34, β7–20 and β1–20 were cytotoxic

Question: How did the MBC [1, 5] turn out when CNC(C)C1CCC(N)C(OC2C(N)CC(N)C(OC3OCC(C)(O)C(NC)C3O)C2O)O1 (stereo not drawn) [Gentamicin, gentamicin] was run?
Answer: 0.31 µg/mL

Question: And the MIC [1, 5]?
Answer: 0.31 µg/mL

Question: And the MBC (S. epidermidis 154; [12])?
Answer: > 100 µg/mL

Question: And the MIC (S. epidermidis 154; Staphylococcus epidermidis, 154, 20 h, antibiotic alone, 20 h, read-out: MIC)?
Answer: > 100 µg/mL

Question: Which “cytotoxic at relevant concentrations” value (human erythrocytes) does the source give for CC[C@H](C)[C@H](NC(=O)CNC(=O)[C@H](CC(C)C)NC(=O)[C@@H](NC(=O)[C@H](Cc1ccc(O)cc1)NC(=O)[C@@H](NC(=O)[C@H](CO)NC(=O)[C@@H](NC(=O)[C@@H]1CCCN1C(=O)[C@@H](NC(=O)[C@@H](N)CO)C(C)C)[C@@H](C)O)C(C)C)[C@@H](C)O)C(=O)N[C@@H](CCCCN)C(=O)N[C@H](C(=O)N[C@@H](CC(C)C)C(=O)N[C@@H](Cc1c[nH]c2ccccc12)C(=O)N[C@@H](CO)C(=O)N[C@@H](C)C(=O)N[C@@H](Cc1ccc(O)cc1)C(=O)N[C@@H](CCCCN)C(=O)N[C@@H](Cc1c[nH]cn1)C(=O)O)[C@@H](C)CC [β1-20] (H-SVPTSVYTLGIKILWSAYKH-OH) here?
Answer: nor the truncated α1–22, α1–15, β7–34, β7–20 and β1–20 were cytotoxic

Question: Which results are given for CO[C@H]1/C=C/O[C@@]2(C)Oc3c(C)c(O)c4c(O)c(c(/C=N/N5CCN(C)CC5)c(O)c4c3C2=O)NC(=O)/C(C)=C\C=C\[C@H](C)[C@H](O)[C@@H](C)[C@@H](O)[C@@H](C)[C@H](OC(C)=O)[C@@H]1C [Rifampicin, rifampicin]?
Answer: MBC [1, 5]: 0.063 µg/mL; MIC [1, 5]: 0.063 µg/mL; MBC (S. epidermidis 154; [12]): 0.05 µg/mL; MBC (S. epidermidis 154; antibiotic alone, 20 h): 0.063 µg/mL

Question: How did the “cytotoxic at relevant concentrations” value (human erythrocytes) turn out when CC(C)C[C@H](NC(=O)[C@H](Cc1ccc(O)cc1)NC(=O)[C@H](Cc1ccc(O)cc1)NC(=O)CNC(=O)[C@H](Cc1c[nH]c2ccccc12)NC(=O)[C@H](CO)NC(=O)[C@H](CO)NC(=O)[C@H](Cc1c[nH]c2ccccc12)NC(=O)[C@H](CC(C)C)NC(=O)[C@H](CCCCN)NC(=O)[C@@H](NC(=O)[C@@H](NC(=O)[C@H](CC(C)C)NC(=O)[C@@H](N)CC(=O)O)[C@@H](C)O)[C@@H](C)O)C(=O)NCC(=O)O [α1-15] (H-DLTTKLWSSWGYYLG-OH) was run?
Answer: nor the truncated α1–22, α1–15, β7–34, β7–20 and β1–20 were cytotoxic
